Results from ChEMBL document CHEMBL2203284, “Synthesis and structure based optimization of 2-(4-phenoxybenzoyl)-5-hydroxyindole as a novel CaMKII inhibitor” (Bioorg Med Chem, 2012).

Assays:
[1] = Inhibition of recombinant CaMK2 expressed in Sf9cells using autocamtide-2/CAM as substrate after 90 mins; conditions: sf9
[2] = Selectivity ratio of IC50 for p38alpha to IC50 for recombinant CaMK2
[3] = Selectivity ratio of IC50 for MLCK to IC50 for recombinant CaMK2
[4] = Selectivity ratio of IC50 for Akt1 to IC50 for recombinant CaMK2
[5] = Selectivity ratio of IC50 for PKCgamma to IC50 for recombinant CaMK2
[6] = Solubility of the compound in water at pH 7.4; format: physicochemical

| Structure (SMILES) | IC50 [1] [nM] | other results |
| --- | --- | --- |
| CCNCCOc1ccc2[nH]c(C(=O)c3ccc(Oc4ccccc4)cc3)cc2c1 | 1500 | – |
| COc1ccc2[nH]c(C(=O)c3ccc(Oc4ccccc4)cc3)cc2c1 | > 10000 | – |
| O=C(c1ccc(Oc2ccccc2)cc1)c1cc2cc(O)ccc2[nH]1 | 610 | Ratio IC50 [2]: < 1; Ratio IC50 [3]: < 1; Ratio IC50 [4]: 295; Ratio IC50 [5]: 93 |
| O=C(c1ccc(Oc2ccccc2)cc1)c1cc2c(Br)c(O)c(Br)cc2[nH]1 | 12 | solubility [6]: < 1 µg/mL; Ratio IC50 [2]: 450; Ratio IC50 [3]: 63; Ratio IC50 [4]: > 5000; Ratio IC50 [5]: 1250 |
| O=C(c1ccc(Oc2ccccc2)cc1)c1cc2c(OCCN3CCC(O)CC3)cccc2[nH]1 | 420 | – |
| CCNCCOc1cccc2[nH]c(C(=O)c3ccc(Oc4ccccc4)cc3)cc12 | 1100 | – |
| CC(C)(Oc1ccc2[nH]c(C(=O)c3ccc(Oc4ccccc4)cc3)cc2c1)C(=O)O | 1500 | – |
| O=C(O)COc1ccc2[nH]c(C(=O)c3ccc(Oc4ccccc4)cc3)cc2c1 | 510 | – |
| O=C(c1ccc(Oc2ccccc2)cc1)c1cc2c(OCCN3CCCCC3)cccc2[nH]1 | 820 | – |
| O=C(c1ccc(Oc2ccccc2)cc1)c1cc2c(Cl)c(O)ccc2[nH]1 | 640 | – |
| O=C(c1ccc(Oc2ccccc2)cc1)c1cc2c(Br)c(O)ccc2[nH]1 | 40 | solubility [6]: < 1 µg/mL; Ratio IC50 [2]: 115; Ratio IC50 [3]: 12; Ratio IC50 [4]: 1500; Ratio IC50 [5]: 550 |
| Cc1c(O)ccc2[nH]c(C(=O)c3ccc(Oc4ccccc4)cc3)cc12 | 1300 | – |
| O=C(c1ccc(Oc2ccccc2)cc1)c1cc2c(OCCCN3CCCCC3)cccc2[nH]1 | 800 | – |
| NCCOc1cccc2[nH]c(C(=O)c3ccc(Oc4ccccc4)cc3)cc12 | 2600 | – |
| O=C(c1ccc(Oc2ccccc2)cc1)c1cc2c(OCCN3CCNCC3)cccc2[nH]1 | 270 | – |
| O=C(c1ccc(Oc2ccccc2)cc1)c1cc2c(Cl)c(O)c(Cl)cc2[nH]1 | 61 | solubility [6]: < 1 µg/mL |
